Laboratory results reported in ChEMBL document CHEMBL4819125, “Synthesis and anti-proliferation activity of mogrol derivatives bearing quinoline and triazole moieties” (Bioorg Med Chem Lett, 2021).

Columns and labels:
A549 [1] = experiment: Antiproliferative activity against human A549 cells assessed as reduction in cell growth by CCK8 assay; assay type: functional, cell-based
NCI-H460 [2] = experiment: Antiproliferative activity against human NCI-H460 cells assessed as reduction in cell growth at 30 uM by CCK8 assay relative to control; assay type: functional
A549 [3] = experiment: Antiproliferative activity against human A549 cells assessed as reduction in cell growth at 30 uM by CCK8 assay relative to control; assay type: functional
NCI-H460 [4] = experiment: Antiproliferative activity against human NCI-H460 cells assessed as reduction in cell growth by CCK8 assay; assay type: functional, cell-based

| Compound | IC50 (A549 [1]) [µM] | inhibition at 30 µM (NCI-H460 [2]) [%] | inhibition at 30 µM (A549 [3]) [%] | IC50 (NCI-H460 [4]) [µM] |
| --- | --- | --- | --- | --- |
| C[C@H](CCCOC(=O)Cn1cc(C2CC2)nn1)[C@H]1CC[C@@]2(C)[C@@H]3CC=C4[C@@H](CC[C@H](O)C4(C)C)[C@]3(C)[C@H](O)C[C@]12C | 17.7 | 6.43 | 89.2 |  |
| Cc1ccc(-c2cn(CC(=O)OCCC[C@@H](C)[C@H]3CC[C@@]4(C)[C@@H]5CC=C6[C@@H](CC[C@H](O)C6(C)C)[C@]5(C)[C@H](O)C[C@]34C)nn2)cc1 | 23.8 | 10.9 | 88.4 |  |
| C[C@H](Cc1cnc2cc(Cl)ccc2c1)[C@H]1CC[C@@]2(C)[C@@H]3CC=C4[C@@H](CC[C@H](O)C4(C)C)[C@]3(C)[C@H](O)C[C@]12C |  | -1.18 | 17.4 |  |
| C[C@H](CC[C@@H](O)C(C)(C)O)[C@H]1CC[C@@]2(C)[C@@H]3CC=C4[C@@H](CC[C@H](O)C4(C)C)[C@]3(C)[C@H](OC(=O)Cn3cc(-c4ccsc4)nn3)C[C@]12C | 6.27 | 44.9 | 90.5 |  |
| C[C@H](Cc1cnc2ccc(Br)cc2c1)[C@H]1CC[C@@]2(C)[C@@H]3CC=C4[C@@H](CC[C@H](O)C4(C)C)[C@]3(C)[C@H](O)C[C@]12C |  | -12.4 | 53.3 |  |
| C[C@H](CCCOC(=O)Cn1cc(-c2ccsc2)nn1)[C@H]1CC[C@@]2(C)[C@@H]3CC=C4[C@@H](CC[C@H](O)C4(C)C)[C@]3(C)[C@H](O)C[C@]12C | 26.1 | 8.3 | 90.5 |  |
| C[C@H](CC[C@@H](O)C(C)(C)O)[C@H]1CC[C@@]2(C)[C@@H]3CC=C4[C@@H](CC[C@H](O)C4(C)C)[C@]3(C)[C@H](OC(=O)Cn3cc(-c4ccc(C#N)cc4)nn3)C[C@]12C | 5.79 | 20.5 | 76.7 |  |
| C[C@H](CC[C@@H](O)C(C)(C)O)[C@H]1CC[C@@]2(C)[C@@H]3CC=C4[C@@H](Cc5cc6cc(Br)ccc6nc5C4(C)C)[C@]3(C)C(=O)C[C@]12C | 13.1 | 17 | 69.4 |  |
| C[C@H](CC[C@@H](O)C(C)(C)O)[C@H]1CC[C@@]2(C)[C@@H]3CC=C4[C@@H](CC[C@H](O)C4(C)C)[C@]3(C)[C@H](OC(=O)Cn3cc(-c4ccccc4)nn3)C[C@]12C | 6.75 | 44.9 | 83 |  |
| C[C@H](CC[C@@H](O)C(C)(C)O)[C@H]1CC[C@@]2(C)[C@@H]3CC=C4[C@@H](Cc5cc6ccc(Br)cc6nc5C4(C)C)[C@]3(C)C(=O)C[C@]12C |  | 1.65 | 22 |  |
| C[C@H](Cc1cnc2ccccc2c1)[C@H]1CC[C@@]2(C)[C@@H]3CC=C4[C@@H](CC[C@H](O)C4(C)C)[C@]3(C)[C@H](O)C[C@]12C | 19.2 | 69.9 | 91.5 | 24.6 |
| C[C@H](Cc1cnc2cnccc2c1)[C@H]1CC[C@@]2(C)[C@@H]3CC=C4[C@@H](CC[C@H](O)C4(C)C)[C@]3(C)[C@H](O)C[C@]12C | 18.2 | 25.8 | 90.2 |  |
| C[C@H](CC[C@@H](O)C(C)(C)O)[C@H]1CC[C@@]2(C)[C@@H]3CC=C4[C@@H](Cc5cc6ccccc6nc5C4(C)C)[C@]3(C)C(=O)C[C@]12C | 13.8 | 80.2 | 94.3 | 17.1 |
| C[C@H](CC[C@@H](O)C(C)(C)O)[C@H]1CC[C@@]2(C)[C@@H]3CC=C4[C@@H](CC[C@H](O)C4(C)C)[C@]3(C)[C@H](O)C[C@]12C [MOGROL] | 27.8 | -13.2 | 62.9 | > 100 |
| C[C@H](CC[C@@H](O)C(C)(C)O)[C@H]1CC[C@@]2(C)[C@@H]3CC=C4[C@@H](CC[C@H](O)C4(C)C)[C@]3(C)[C@H](OC(=O)Cn3cc(C4CC4)nn3)C[C@]12C | 19.8 | 34.7 | 92.9 |  |
| O=c1[nH]cc(F)c(=O)[nH]1 [FLUOROURACIL] | 1.65 |  |  | 7.03 |
| C[C@H](CC[C@@H](O)C(C)(C)O)[C@H]1CC[C@@]2(C)[C@@H]3CC=C4[C@@H](Cc5cc6cc(Cl)ccc6nc5C4(C)C)[C@]3(C)C(=O)C[C@]12C | 12.9 | 13.1 | 84.1 |  |
| C[C@H](CCCOC(=O)Cn1cc(-c2ccccc2)nn1)[C@H]1CC[C@@]2(C)[C@@H]3CC=C4[C@@H](CC[C@H](O)C4(C)C)[C@]3(C)[C@H](O)C[C@]12C | 22.5 | 7.56 | 87.9 |  |
| Cc1ccc(-c2cn(CC(=O)O[C@@H]3C[C@]4(C)[C@@H]([C@H](C)CC[C@@H](O)C(C)(C)O)CC[C@@]4(C)[C@@H]4CC=C5[C@@H](CC[C@H](O)C5(C)C)[C@@]43C)nn2)cc1 | 5.96 | 40 | 77.3 |  |
| C[C@H](Cc1cnc2ccc(Cl)cc2c1)[C@H]1CC[C@@]2(C)[C@@H]3CC=C4[C@@H](CC[C@H](O)C4(C)C)[C@]3(C)[C@H](O)C[C@]12C |  | -12.6 | 10.6 |  |
| C[C@H](CC[C@@H](O)C(C)(C)O)[C@H]1CC[C@@]2(C)[C@@H]3CC=C4[C@@H](Cc5cc6ccc(Cl)cc6nc5C4(C)C)[C@]3(C)C(=O)C[C@]12C |  | 2.18 | 6.68 |  |
| C[C@H](Cc1cnc2cc(Br)ccc2c1)[C@H]1CC[C@@]2(C)[C@@H]3CC=C4[C@@H](CC[C@H](O)C4(C)C)[C@]3(C)[C@H](O)C[C@]12C |  | 0.71 | 42.7 |  |
| C[C@H](CC[C@@H](O)C(C)(C)O)[C@H]1CC[C@@]2(C)[C@@H]3CC=C4[C@@H](Cc5cc6ccncc6nc5C4(C)C)[C@]3(C)C(=O)C[C@]12C | 14.3 | 81.1 | 95.2 | 18.3 |
